Laboratory results reported in the supplement of paper PMC11061612.

Key:
[1] = test system: 8305C (Thyroid Gland Carcinoma); assay: Bliss excess, mean over the matrix (fraction); higher = more synergy
In short: (§1)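 Bliss excess equals the observed combination effect minus the expected value EA + EB − EA·EB, where EA and EB are the effects of each agent alone. Combination Emax is the second-highest inhibition within the matrix. Inhibition was scaled from CellTiter-Glo 2.0 luminescence, with 0 set by vehicle wells and 1 by blank wells, after 72 hours of two-drug dosing of cells plated in 1536-well plates.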

[2] = test system: CAL-51 (Breast Carcinoma); assay: as above
In short: as §1

[3] = test system: CAL-54 (Kidney Carcinoma); assay: as above
In short: as §1

[4] = test system: CAPAN-1 (Pancreatic Carcinoma); assay: as above
In short: as §1

COLO-829 (Melanoma) = assay: as above
In short: as §1

[5] = test system: HDLM-2 (Hodgkin's Lymphoma); assay: as above
In short: as §1

[6] = test system: Hs-633T (Other Solid Carcinomas); assay: as above
In short: as §1

[7] = test system: KARPAS-231 (B-Cell Non-Hodgkin's Lymphoma); assay: as above
In short: as §1

[8] = test system: KYSE-410 (Esophageal Squamous Cell Carcinoma); assay: as above
In short: as §1

[9] = test system: LB771-HNC (Head and Neck Carcinoma); assay: as above
In short: as §1

[10] = test system: LU-139 (Small Cell Lung Carcinoma); assay: as above
In short: as §1

[11] = test system: MDA-MB-468 (Breast Carcinoma); assay: as above
In short: as §1

[12] = test system: RKO (Colorectal Carcinoma); assay: as above
In short: as §1

[13] = test system: RT-112 (Bladder Carcinoma); assay: as above
In short: as §1

[14] = test system: SUP-T1 (T-Lymphoblastic Leukemia); assay: as above
In short: as §1

[15] = test system: UMC-11 (Other Solid Carcinomas); assay: as above
In short: as §1

[16] = test system: LoVo (Colorectal Carcinoma); assay: combination Emax (second highest fraction inhibited in the dose matrix, 72 h); higher = more inhibition; extreme values may be limits of the assay
In short: as §1

[17] = test system: RT-112 (Bladder Carcinoma); assay: as above
In short: as §1

[18] = test system: SK-OV-3 (Ovarian Carcinoma); assay: as above
In short: as §1

[19] = test system: SUP-T1 (T-Lymphoblastic Leukemia); assay: as above
In short: as §1

| Structure (SMILES) | Bliss excess [1] | Bliss excess [2] | Bliss excess [3] | Bliss excess [4] | Bliss excess (COLO-829 (Melanoma)) | Bliss excess [5] | Bliss excess [6] | Bliss excess [7] | Bliss excess [8] | Bliss excess [9] | Bliss excess [10] | Bliss excess [11] | Bliss excess [12] | Bliss excess [13] | Bliss excess [14] | Bliss excess [15] | combination Emax [16] | combination Emax [17] | combination Emax [18] | combination Emax [19] |
| --- | --- | --- | --- | --- | --- | --- | --- | --- | --- | --- | --- | --- | --- | --- | --- | --- | --- | --- | --- | --- |
| Cc1cc2ncnn2cc1Nc1ncc2c(n1)n(C1CCOCC1)c(=O)n2C [AZD7648] + O=C(c1cc(Cc2n[nH]c(=O)c3ccccc23)ccc1F)N1CCN(C(=O)C2CC2)CC1 [Olaparib] (first compound max 10 µM, 7x7, partner max 10 µM) | -0.0478 | -0.0214 | -0.0408 | -0.1 | -0.0378 | -0.0558 | -0.0191 | 0.0132 | -0.0466 | -0.0542 | -0.0492 | -0.0504 | -0.0152 | -0.0152 | -0.0488 | 0.0471 | 0.533 | 0.143 | 0.173 | 0.465 |
| CN(CCO)CC[C@H](CSc1ccccc1)Nc1ccc(S(=O)(=O)NC(=O)c2ccc(N3CCC([C@@H](O)c4ccccc4-c4ccc(Cl)cc4)CC3)cc2)cc1S(=O)(=O)C(F)(F)F [AZD4320] + C=CCn1c(=O)c2cnc(Nc3ccc(N4CCN(C)CC4)cc3)nc2n1-c1cccc(C(C)(C)O)n1 [AZD1775] (first compound max 1 µM, partner max 1 µM) | -0.0178 | -0.0122 | 0.146 | 0.0172 | -0.0167 | 0.106 | 0.0672 | 0.117 | -0.0313 | -0.0049 | 0.0145 | 0.032 | -0.0003 | -0.0285 | 0.0212 | -0.0122 | 0.838 | 0.744 | 0.628 | 0.909 |
| Cc1c2c(nn1C)CSCc1cc(n(C)n1)CSc1cc(c3ccccc3c1)OCCCc1c(C(=O)O)n(C)c3c-2c(Cl)ccc13 [AZD5991] + C[C@@H](Nc1cc(F)cc(F)c1)c1cc(C(=O)N(C)C)cc2c(=O)cc(N3CCOCC3)oc12 [AZD8186] (first compound max 1 µM, 7x7, partner max 3 µM) | -0.0844 | 0.0173 | -0.004 | -0.0595 | -0.0758 | -0.0351 | 0.0127 | -0.0107 | -0.0639 | -0.0206 | -0.0439 | 0.0092 | -0.0116 | 0.0316 | -0.0003 | -0.039 | 0.732 | 0.89 | 0.424 | 0.279 |
| CC1(C)CCC(CN2CCN(c3ccc(C(=O)NS(=O)(=O)c4ccc(NCC5CCOCC5)c([N+](=O)[O-])c4)c(Oc4cnc5[nH]ccc5c4)c3)CC2)=C(c2ccc(Cl)cc2)C1 [Venetoclax] + C[C@@H](Nc1cc(F)cc(F)c1)c1cc(C(=O)N(C)C)cc2c(=O)cc(N3CCOCC3)oc12 [AZD8186] (first compound max 1 µM, 7x7, partner max 3 µM) | -0.0423 | -0.0394 | 0.0021 | -0.0594 | -0.0019 | 0.122 | -0.017 | -0.184 | -0.0397 | 0.0083 | 0.0371 | -0.0688 | -0.049 | -0.0197 | -0.0402 | -0.0263 | 0.494 | 0.472 | 0.433 | 0.461 |
| Cc1c2c(nn1C)CSCc1cc(n(C)n1)CSc1cc(c3ccccc3c1)OCCCc1c(C(=O)O)n(C)c3c-2c(Cl)ccc13 [AZD5991] + C1CN(CCC1(C(=O)N[C@@H](CCO)C2=CC=C(C=C2)Cl)N)C3=NC=NC4=C3C=CN4 [Capivasertib] (first compound max 1 µM, 7x7, partner max 3 µM) | 0.0008 | 0.0392 | 0.0428 | -0.0318 | -0.0212 | 0.0369 | 0.0123 | -0.0402 | -0.0218 | 0.0612 | -0.0056 | 0.0256 | 0.0296 | 0.0563 | -0.0218 | 0.0253 | 0.625 | 0.858 | 0.36 | 0.503 |
| CC1(C)CCC(CN2CCN(c3ccc(C(=O)NS(=O)(=O)c4ccc(NCC5CCOCC5)c([N+](=O)[O-])c4)c(Oc4cnc5[nH]ccc5c4)c3)CC2)=C(c2ccc(Cl)cc2)C1 [Venetoclax] + C=CCn1c(=O)c2cnc(Nc3ccc(N4CCN(C)CC4)cc3)nc2n1-c1cccc(C(C)(C)O)n1 [AZD1775] (first compound max 1 µM, partner max 1 µM) | -0.0431 | -0.0507 | -0.0099 | -0.0443 | -0.012 | 0.0749 | 0.017 | -0.047 | -0.0451 | 0.0127 | 0.0207 | -0.0308 | 0.0487 | 0.0891 | 0.0425 | -0.0679 | 0.741 | 0.978 | 0.74 | 0.812 |
| Cc1c2c(nn1C)CSCc1cc(n(C)n1)CSc1cc(c3ccccc3c1)OCCCc1c(C(=O)O)n(C)c3c-2c(Cl)ccc13 [AZD5991] + Cc1cc2ncnn2cc1Nc1ncc2c(n1)n(C1CCOCC1)c(=O)n2C [AZD7648] (first compound max 1 µM, 7x7, partner max 10 µM) | -0.0739 | -0.0529 | -0.0697 | -0.0057 | -0.0341 | 0.0007 | -0.0097 | -0.0639 | -0.0184 | -0.0251 | -0.013 | 0.008 | -0.0301 | -0.0298 | 0.0115 | -0.0716 | 0.573 | 0.854 | 0.483 | 0.466 |
| Cc1c2c(nn1C)CSCc1cc(n(C)n1)CSc1cc(c3ccccc3c1)OCCCc1c(C(=O)O)n(C)c3c-2c(Cl)ccc13 [AZD5991] + C=CCn1c(=O)c2cnc(Nc3ccc(N4CCN(C)CC4)cc3)nc2n1-c1cccc(C(C)(C)O)n1 [AZD1775] (first compound max 1 µM, partner max 1 µM) | -0.0065 | 0.045 | -0.0522 | -0.0981 | -0.0169 | 0.0055 | -0.0399 | 0.0195 | 0.0218 | 0.0271 | -0.0421 | -0.0956 | -0.0002 | 0.0566 | 0.0028 | -0.0732 | 0.856 | 0.981 | 0.597 | 0.847 |
| NC1(C(=O)N[C@@H](CCO)c2ccc(Cl)cc2)CCN(c2ncnc3[nH]ccc23)CC1 [Capivasertib] + Cn1cnc2c(F)c(Nc3ccc(Br)cc3Cl)c(C(=O)NOCCO)cc21 [Selumetinib] (first compound max 10 µM, 7x7, partner max 10 µM) | -0.0212 | 0.0176 | 0.0079 | -0.0081 | 0.0367 | -0.0118 | 0.0259 | -0.0465 | 0.0521 | -0.0595 | -0.0165 | 0.0736 | 0.0463 | 0.01 | 0.0063 | 0.0032 | 0.717 | 0.475 | 0.473 | 0.682 |
| CC1(C)CCC(CN2CCN(c3ccc(C(=O)NS(=O)(=O)c4ccc(NCC5CCOCC5)c([N+](=O)[O-])c4)c(Oc4cnc5[nH]ccc5c4)c3)CC2)=C(c2ccc(Cl)cc2)C1 [Venetoclax] + CCN(CCO)CCCOc1ccc2c(Nc3cc(CC(=O)Nc4cccc(F)c4)[nH]n3)ncnc2c1 [AZD2811] (first compound max 1 µM, 7x7, partner max 1 µM) | -0.0038 | 0.046 | -0.0105 | -0.042 | -0.0359 | 0.106 | -0.0086 | -0.0484 | -0.0234 | -0.028 | 0.0596 | -0.086 | 0.0096 | 0.045 | -0.0012 | -0.0398 | 0.197 | 0.458 | 0.205 | 0.614 |
| CN(CCO)CC[C@H](CSc1ccccc1)Nc1ccc(S(=O)(=O)NC(=O)c2ccc(N3CCC([C@@H](O)c4ccccc4-c4ccc(Cl)cc4)CC3)cc2)cc1S(=O)(=O)C(F)(F)F [AZD4320] + Cn1cnc2c(F)c(Nc3ccc(Br)cc3Cl)c(C(=O)NOCCO)cc21 [Selumetinib] (first compound max 1 µM, 7x7, partner max 3 µM) | 0.097 | 0.0502 | 0.0336 | 0.0665 | -0.0351 | 0.0231 | -0.0329 | -0.006 | 0.0417 | 0.0178 | -0.006 | -0.0301 | 0.0229 | 0.113 | -0.0462 | -0.0068 | 0.516 | 0.552 | 0.258 | 0.872 |
| COc1cc2c(cc1OCCCCCOc1cc3c(cc1OC)C(=O)N1C=C(C)C[C@H]1C=N3)N=C[C@@H]1CC(C)=CN1C2=O [SG3199] + O=C(c1cc(Cc2n[nH]c(=O)c3ccccc23)ccc1F)N1CCN(C(=O)C2CC2)CC1 [Olaparib] (first compound max 0.001 µM, 7x7, partner max 10 µM) | -0.0854 | -0.0299 | -0.0488 | -0.0802 | -0.0476 | -0.0444 | -0.0312 | 0.0289 | -0.0334 | 0.0002 | -0.0196 | -0.0971 | -0.0131 | -0.0227 | -0.0478 | 0.0084 | 0.14 | 0.1 | 0.0705 | 0.442 |
